System: human promyelocytic leukemia HL-60 cells
Assay: in vivo anti-tumor (anti-leukemia) study, HL-60 xenografts in nude mice
Parameters: species or system Athymic nude mice (BALB/c nu/nu)
Details: for % inhibition for 1.5 mg/kg/day dosage group: 1.5 mg/kg/day oral (gastric gavage), from relative tumor weight vs control
Method: The following study on nude mice was conducted to investigate the in vivo anti-tumor activities, specifically the anti-leukemia effects, of ergosta-7,22-dien-3β-ol.
Athymic nude mice (BALB/c nu/nu, with body weight of 20-25 g and aged 6-10 weeks) were kept in autoclaved cages with polyester fiber filters to avoid contact with the pathogens. All the animal diet and tap water were autoclaved before feeding to nude mice ad libitum.
Suspension of 1×10^7 of human promyelocytic leukemia HL-60 cells was then injected subcutaneously (s.c.) into the dorsal side of nude mice.
In this study, the tested item was the powders of ergosta-7,22-dien-3β-ol obtained according to the method described in Example 1 above.
When palpable tumors (about 100-200 mm^3 in volume) arose within 14-21 days after injection, the mice were randomly divided into three treatment groups and one control group in which each group consisted of 15 mice. Then, the mice in the treatment group were administrated with the tested item at three dose levels of 1.5, 15.0 or 50.0 mg (of tested item)/kg (of body weight of mouse)/day (in distilled water), while those mice in the control group were administrated with distilled water (as control vehicle). Both groups of mice were administrated by oral route (gastric gavage) daily (except Sundays) for up to 28 days. Tumor dimension was measured on every Mondays, Wednesdays and Fridays.
Tumor dimension was measured by Vernier caliper and tumor weight and tumor volume were calculated according to the following formulae:
Tumor weight (mg)=L×W^2×π/6; and
Tumor volume (mm^3)=L×W×H×π/6;
where L, W, and H were the major dimension, the minor dimension, and the height of the tumor respectively (π=3.1416).
The relative tumor weight was calculated by dividing the tumor weight on a certain day by the mean tumor weight on Day 1. Similarly, the relative tumor volume was calculated by dividing the tumor volume on a certain day by the mean tumor volume on Day 1.
Upon 28 days of administration, the nude mice were euthanized and the final body and tumor weights were recorded for calculating the ratio of the final tumor-to-body weight.
The above-shown results were expressed as the mean±SE of the percentage of inhibition of the tested item on the growth of HL-60 xenografts in nude mice in single experiments. Percentage of inhibition (for any Day n) was calculated from the following formula:
(1−relative tumor weight of treatment group on Day n/relative tumor weight of control group on Day n)×100%.

[1] = 1.5, 15.0 or 50.0 mg/kg/day oral, up to 28 days, all three treatment groups, 1.5 mg/kg/day most significant

CC(C)[C@@H](C)/C=C/[C@@H](C)[C@H]1CC[C@H]2C3=CCC4C[C@@H](O)CC[C@]4(C)[C@H]3CC[C@]12C (stereo partly drawn) [ergosta-7,22-dien-3β-ol]
Anti-tumor activity (1.5, 15.0 and 50.0 mg/kg/day oral, HL-60 xenografts in nude mice): observed at all three dosage groups | percentage ratios of final tumor-to-body weight (1.5, 15.0 or 50.0 mg/kg/day oral, after 28 days, three treatment groups vs control, 1.5 mg/kg/day most significant): lower than that of the control group | relative tumor volume [1]: some effects in the reductions | relative tumor weight [1]: some effects in the reductions | % inhibition for 1.5 mg/kg/day dosage group (Day 1, HL-60 xenografts in nude mice): 0.00% | % inhibition for 1.5 mg/kg/day dosage group (Day 3, HL-60 xenografts in nude mice): 11.35% | % inhibition for 1.5 mg/kg/day dosage group (Day 5, HL-60 xenografts in nude mice): 11.24% | % inhibition for 1.5 mg/kg/day dosage group (Day 8, HL-60 xenografts in nude mice): 23.69% | % inhibition for 1.5 mg/kg/day dosage group (Day 10, HL-60 xenografts in nude mice): 31.65% | % inhibition for 1.5 mg/kg/day dosage group (Day 12, HL-60 xenografts in nude mice): 32.32% | % inhibition for 1.5 mg/kg/day dosage group (Day 15, HL-60 xenografts in nude mice): 30.61% | % inhibition for 1.5 mg/kg/day dosage group (Day 17, HL-60 xenografts in nude mice): 34.99% | % inhibition for 1.5 mg/kg/day dosage group (Day 19, HL-60 xenografts in nude mice): 43.19% | % inhibition for 1.5 mg/kg/day dosage group (Day 22, HL-60 xenografts in nude mice): 38.94% | % inhibition for 1.5 mg/kg/day dosage group (Day 24, HL-60 xenografts in nude mice): 40.57% | % inhibition for 1.5 mg/kg/day dosage group (Day 26, HL-60 xenografts in nude mice): 44.32%

Reference: patent US20090247497A1, “FORMULATION AND USE OF ERGOSTA-7,22-DIEN-3BETA-OL” (priority 2008, published 2009)
